Data as given in patent US20190209539A1, “THIOHYDANTOIN ANDROGEN RECEPTOR ANTAGONISTS FOR THE TREATMENT OF CANCER” (Janssen Pharmaceutica NV, priority 2016, published 2019).
Substitutions are numbered along the chain they refer to.

Key:
[1] = biological target: T1, F876L mutant Androgen Receptor (AR-F876L) (Homo sapiens, UniProt P10275, F877L); test: LNCaP-AR-F876L ANT: ARE luciferase reporter assay, antagonist mode; format: cell-based
T1 construct: expressed in transfected cells; host or cells: LNCaP F876L cells with ARE firefly luciferase lentiviral construct
T1 sequence (P10275 1-920 F877L): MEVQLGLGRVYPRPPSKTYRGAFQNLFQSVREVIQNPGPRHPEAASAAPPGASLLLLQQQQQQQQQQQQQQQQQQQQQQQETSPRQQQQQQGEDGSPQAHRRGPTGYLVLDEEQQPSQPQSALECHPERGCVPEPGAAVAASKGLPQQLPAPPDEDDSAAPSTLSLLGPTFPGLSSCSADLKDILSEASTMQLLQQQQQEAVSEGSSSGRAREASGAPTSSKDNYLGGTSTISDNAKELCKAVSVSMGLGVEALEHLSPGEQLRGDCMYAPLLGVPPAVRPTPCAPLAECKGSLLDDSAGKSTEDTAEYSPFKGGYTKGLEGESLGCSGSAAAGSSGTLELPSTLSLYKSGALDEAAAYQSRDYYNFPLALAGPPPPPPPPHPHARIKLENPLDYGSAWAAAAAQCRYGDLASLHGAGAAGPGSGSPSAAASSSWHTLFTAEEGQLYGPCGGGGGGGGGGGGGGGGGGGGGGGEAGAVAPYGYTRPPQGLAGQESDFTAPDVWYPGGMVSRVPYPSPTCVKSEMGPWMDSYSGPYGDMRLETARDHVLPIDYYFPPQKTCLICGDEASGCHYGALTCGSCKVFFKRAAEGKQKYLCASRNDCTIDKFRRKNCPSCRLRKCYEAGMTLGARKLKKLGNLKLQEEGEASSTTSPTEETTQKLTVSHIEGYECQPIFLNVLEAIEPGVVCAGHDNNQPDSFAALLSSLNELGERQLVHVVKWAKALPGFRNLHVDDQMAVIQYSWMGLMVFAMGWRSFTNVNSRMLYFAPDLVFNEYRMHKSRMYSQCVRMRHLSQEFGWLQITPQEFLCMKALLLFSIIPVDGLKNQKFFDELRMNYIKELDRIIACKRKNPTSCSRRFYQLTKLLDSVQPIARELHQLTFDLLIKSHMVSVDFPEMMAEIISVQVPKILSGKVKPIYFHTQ
Protocol: (§1) A stable pooled-population cell line was generated using puromycin (Life Technologies) selection at 1:10,000 v/v. The protocol below was used for both cell lines and for testing of the compounds of Formula (I) of the present invention.
(§2) LNCaP cells were grown to about 80% confluence, media removed and cells rinsed in Hank's balanced salt solution prior to separation from the plate with 0.05% Trypsin EDTA. Cells were lifted and trypsin negated in complete CSS (charcoal stripped serum) culture media. […] Agonist challenge was at 400 pM for WT assay and 600 pM for F876L assay. Plates containing cells and compounds herein were incubated for a further 20-24 hours at 37° C., 5% CO2 before addition of 40 μL/well of Steady-Glo Luciferase Assay System Reagent (Promega# E2520). After 1 h, plates were read for luminescence on a BMG Pherastar.
(§3) EC/IC50 calculations were achieved utilizing calculated RLU data and data fitting macros. Data were fit using least-squares methods to the following formula: […]
(§4) As used herein: pIC50 is defined as—Log10(IC50 expressed in [Molar]). pEC50 is defined as—Log10(EC50 expressed in [Molar]). […] LNCaP-AR-wt ANT refers to the reporter assay using LNCaP cells stably transfected with the Androgen Response Element Firefly Luciferase lentiviral construct and wild-type Androgen Receptor (AR-wt) in Antagonist mode. […]

[2] = biological target: T1, F876L mutant Androgen Receptor (AR-F876L); test: LNCaP-AR-F876L AG: ARE luciferase reporter assay, agonist mode; format: cell-based
Protocol: as §1, §2, §3
(§5) As used herein: pIC50 is defined as—Log10(IC50 expressed in [Molar]). pEC50 is defined as—Log10(EC50 expressed in [Molar]). […] LNCaP-AR-wt ANT refers to the reporter assay using LNCaP cells stably transfected with the Androgen Response Element Firefly Luciferase lentiviral construct and wild-type Androgen Receptor (AR-wt) in Antagonist mode. LNCaP-AR-wt AG refers to the reporter assay using LNCaP cells stably transfected with the Androgen Response Element Firefly Luciferase lentiviral construct and wild-type Androgen Receptor (AR-wt) in Agonist mode. LNCaP-AR-F876L ANT refers to the reporter assay using LNCaP cells stably transfected with the Androgen Response Element Firefly Luciferase lentiviral construct and F876L mutant Androgen Receptor (AR-F876L) in Antagonist mode. LNCaP-AR-F876L AG refers to the reporter assay using LNCaP cells stably transfected with the Androgen Response Element Firefly Luciferase lentiviral construct and F876L mutant Androgen Receptor (AR-F876L) in Agonist mode.

[3] = biological target: T2, wild-type Androgen Receptor (AR-wt) (Homo sapiens, UniProt P10275); test: LNCaP-AR-wt AG: ARE luciferase reporter assay, agonist mode; format: cell-based
T2 construct: expressed in transfected cells; host or cells: LNCaP AR (cs) cells with ARE firefly luciferase lentiviral construct
T2 sequence (P10275 1-920): T1 sequence (P10275 1-920 F877L) with L877F
Protocol: as §1, §2, §3, §5

[4] = biological target: T2, wild-type Androgen Receptor (AR-wt); test: LNCaP-AR-wt ANT: ARE luciferase reporter assay, antagonist mode; format: cell-based
Protocol: as §1, §2, §3, §4

T877A AR mutant = biological target: T3, T877A AR mutant (Homo sapiens, UniProt P10275, T878A); conditions: cited from earlier work
T3 sequence (P10275 1-920 T878A): T1 sequence (P10275 1-920 F877L) with L877F, T878A

[5] = maximum % stimulation (agonist response), % of 1 μM R-1881 max

| Compound | LNCaP-AR-F876L AG MAX % Stim [2, 5] [%] | LNCaP-AR-wt AG MAX % Stim [3, 5] [%] | further results |
| --- | --- | --- | --- |
| CNC(=O)c1ccc(N2C(=S)N(c3cnc(C#N)c(C)c3)C(=O)C23CCCC3)cc1F [Cpd 65, 4-[7-(6-cyano-5-methyl-3-pyridyl)-6-oxo-8-thioxo-7,9-diazaspiro[4.4]nonan-9-yl]-2-fluoro-N-methyl-benzamide] | – | – | IC50 ([1]; antagonist mode, 600 pM R-1881 challenge, read-out: LNCaP-AR-F876L ANT pIC50 (converted)): 389 nM; Emax ([1]; maximum % inhibition of R1881 control response over tested concentration range, read-out: LNCaP-AR-F876L ANT MAX % Inh): 98.9%; EC50 ([2]; agonist mode, read-out: LNCaP-AR-F876L AG pEC50 (converted)): > 15100 nM; Emax ([2]; maximum % stimulation (agonist response), % of 1 μM R-1881 max, read-out: LNCaP-AR-F876L AG MAX % Stim): 0.8%; EC50 ([3]; agonist mode, read-out: LNCaP-AR-wt AG pEC50 (converted)): > 15100 nM; Emax ([3]; maximum % stimulation (agonist response), % of 1 μM R-1881 max, read-out: LNCaP-AR-wt AG MAX % Stim): 1.2%; IC50 ([4]; antagonist mode, 400 pM R-1881 challenge, read-out: LNCaP-AR-wt ANT pIC50 (converted)): 417 nM; Emax ([4]; maximum % inhibition of R1881 control response over tested concentration range, read-out: LNCaP-AR-wt ANT MAX % Inh): 97.8% |
| N#Cc1ncc(N2C(=O)C3(CCC3)N(c3ccc4[nH]ncc4c3)C2=S)cc1C(F)(F)F [Cpd 92, 5-[8-(1H-indazol-5-yl)-5-oxo-7-thioxo-6,8-diazaspiro[3.4]octan-6-yl]-3-(trifluoromethyl)pyridine-2-carbonitrile] | 1.3 | 2.8 | – |
| CC(C)(O)C(=O)Nc1ccc([N+](=O)[O-])c(C(F)(F)F)c1 [hydroxyflutamide] | – | – | activity in T877A AR mutant (T877A AR mutant): act as AR agonists |
| N#Cc1ncc(N2C(=O)C3(CCC3)N(c3cccnc3)C2=S)cc1C(F)(F)F [Cpd 9, 5-[5-oxo-8-(3-pyridyl)-7-thioxo-6,8-diazaspiro[3.4]octan-6-yl]-3-(trifluoromethyl)pyridine-2-carbonitrile] | 0.0 | −0.2 | – |
| CCCNC(=O)c1ccc(N2C(=S)N(c3cnc(C#N)c(C(F)(F)F)c3)C(=O)C23CCC3)cc1F [Cpd 68, 4-[6-[6-cyano-5-(trifluoromethyl)-3-pyridyl]-5-oxo-7-thioxo-6,8-diazaspiro[3.4]octan-8-yl]-2-fluoro-N-propyl-benzamide] | 0.9 | 0.2 | – |
| N#Cc1ncc(N2C(=O)C3(CCC3)N(c3ccc(C(=O)NCc4ccccc4Cl)c(F)c3)C2=S)cc1C(F)(F)F [Cpd 31, N-[(2-chlorophenyl)methyl]-4-[6-[6-cyano-5-(trifluoromethyl)-3-pyridyl]-5-oxo-7-thioxo-6,8-diazaspiro[3.4]octan-8-yl]-2-fluoro-benzamide] | 0.3 | 0.2 | – |
| N#Cc1ncc(N2C(=O)C3(CCC3)N(c3cccc(CO)c3)C2=S)cc1C(F)(F)F [Cpd 81, 5-[8-[3-(hydroxymethyl)phenyl]-5-oxo-7-thioxo-6,8-diazaspiro[3.4]octan-6-yl]-3-(trifluoromethyl)pyridine-2-carbonitrile] | 1.2 | 0.7 | – |
| N#Cc1ncc(N2C(=O)C3(CCC3)N(c3ccc(OCCCN4CCCC4)c(F)c3)C2=S)cc1C(F)(F)F [Cpd 55, 5-[8-[3-fluoro-4-(3-pyrrolidin-1-ylpropoxy)phenyl]-5-oxo-7-thioxo-6,8-diazaspiro[3.4]octan-6-yl]-3-(trifluoromethyl)pyridine-2-carbonitrile] | 0.6 | 0.7 | – |
| Cc1cc(N2C(=O)C3(CCC3)N(c3ccc(C(=O)NC4CCOCC4)c(F)c3)C2=S)cnc1C#N [Cpd 2, 4-[6-(6-cyano-5-methyl-3-pyridyl)-5-oxo-7-thioxo-6,8-diazaspiro[3.4]octan-8-yl]-2-fluoro-N-tetrahydropyran-4-yl-benzamide] | −0.4 | 0.8 | – |
